Data on 26 molecules can be found in patent US11053258B2, “Pyrimidine carboxamides as GSK-3 inhibitors” (BRISTOL-MYERS SQUIBB COMPANY, priority 2016, dated 2021).

One series deals with pTau. Kind of series: pTau assay. Format: cell-based.
A further series deals with GSK3β (Homo sapiens, UniProt P49841). Description: GSK3β kinase assay (Caliper LabChip3000, fluoresceinated peptide substrate). Format: biochemical. As to conditions: first value of cell; 250 pM enzyme, 20 uM ATP, 20 hours room temperature; read-out: GSK3β/α (nM): GSK3β IC50. Here is the method: (§1) The kinase assay was performed in V-bottom 384-well plates. The final assay volume was 30 μl prepared from 15 μl additions of enzyme, substrates (fluoresceinated peptide FL-KRREILSRRP[ps]ERYR-NH2 and ATP) and test compounds in assay buffer (100 mM HEPES pH 7.4, 10 mM MgCl2, 25 mM Beta-Glycerolphosphate, 0.015% Brij35 and 0.25 mM DTT). The reaction was incubated at room temperature for 20 hours and terminated by adding 45 μl of 35 mM EDTA to each sample. The reaction mixture was analyzed on the Caliper LabChip3000 (Caliper, Hopkinton, Mass.) by electrophoretic separation of the unphosphorylated substrate and phosphorylated product. Inhibition data were calculated by comparison of the no enzyme control reactions for 100% inhibition and vehicle-only reactions for 0% inhibition. The final concentration of reagents in the assay were 250 pM GSK3α or GSK3β, 20 uM ATP, 1.5 uM FL-KRREILSRRP[ps]ERYR-NH2, and 1.6% DMSO. Dose response curves were generated to determine the concentration required to inhibit 50% of the kinase activity (IC50). Compounds were dissolved at 10 mM in dimethylsulfoxide (DMSO) and evaluated at eleven concentrations. IC50 values were derived by non-linear regression analysis.

For a further series, the target named is GSK3α (Homo sapiens, UniProt P49840). Kind of series: GSK3α kinase assay (Caliper LabChip3000, fluoresceinated peptide substrate). Format: biochemical. The settings on record: second value of cell; 250 pM enzyme, 20 uM ATP, 20 hours room temperature; read-out: GSK3β/α (nM): GSK3α IC50. As for the experimental part:
as §1

The conditions of series [1]: rcm bond, 70.0 °C.

Molecules are shown by their SMILES. Values joined by “and” are separate entries in the source; they are usually repeats but may differ in a detail not shown here. Identical values can stand only once. Like-named read-outs stand apart in the source and are kept apart here.

Chain of GSK3β (P49841 whole entry, species assumed): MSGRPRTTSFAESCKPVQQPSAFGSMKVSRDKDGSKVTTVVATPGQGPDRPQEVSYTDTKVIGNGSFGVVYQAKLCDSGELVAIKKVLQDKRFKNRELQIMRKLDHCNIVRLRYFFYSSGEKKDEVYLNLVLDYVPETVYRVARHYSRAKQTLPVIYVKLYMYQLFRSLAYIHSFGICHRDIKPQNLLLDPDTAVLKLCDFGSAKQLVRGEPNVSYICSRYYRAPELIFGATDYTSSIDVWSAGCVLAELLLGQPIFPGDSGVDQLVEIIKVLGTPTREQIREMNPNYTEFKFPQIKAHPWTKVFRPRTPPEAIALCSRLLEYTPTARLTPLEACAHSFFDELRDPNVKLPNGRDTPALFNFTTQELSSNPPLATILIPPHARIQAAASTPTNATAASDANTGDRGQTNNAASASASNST
Chain of GSK3α (P49840 whole entry, species assumed): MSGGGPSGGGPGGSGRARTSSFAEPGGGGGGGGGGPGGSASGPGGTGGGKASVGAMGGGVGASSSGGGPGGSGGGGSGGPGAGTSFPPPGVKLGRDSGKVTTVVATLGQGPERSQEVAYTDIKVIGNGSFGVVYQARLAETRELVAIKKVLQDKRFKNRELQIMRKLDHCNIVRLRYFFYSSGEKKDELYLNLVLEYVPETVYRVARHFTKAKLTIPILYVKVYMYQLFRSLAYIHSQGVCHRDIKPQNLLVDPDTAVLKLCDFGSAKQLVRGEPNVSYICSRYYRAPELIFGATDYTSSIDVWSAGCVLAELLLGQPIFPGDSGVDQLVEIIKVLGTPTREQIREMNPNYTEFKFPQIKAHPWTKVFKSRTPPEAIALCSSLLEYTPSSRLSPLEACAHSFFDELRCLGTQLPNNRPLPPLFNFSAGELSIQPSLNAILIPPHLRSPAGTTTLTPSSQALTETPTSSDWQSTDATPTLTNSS

On to `O=C1Nc2cnc(F)cc2N2CCN(CC=CCCC(O)CNc3nccc1n3)CC2` (single isomer, unassigned) [Example 28, (E)-2^6-fluoro-8-hydroxy-3,6-diaza-5(4,2)-pyrimidina-1(1,4)-piperazina-2(4,3)-pyridinacyclotridecaphan-11-en-4-one], for which the IC50 in the series on pTau was 1870 nM; on GSK3β, 14.7 nM; at GSK3α, 17.5 nM. Besides, in series [1] (from C=CCCC(O)CNc1nccc(C(=O)Nc2cnc(F)cc2N2CCN(CC=C)CC2)n1, 19-membered ring, Zhan 1B (30 mol%), ClCH2CH2Cl, 5.17 mM, 3.0 h), the ring closure, isolated yield was 22% and 13%.
Take `CC1(O)CCCCCOc2ccncc2NC(=O)c2ccnc(n2)NC1` (stereo not shown) [Example 42, 11-Hydroxy-11-methyl-5-oxa-3,13-diaza-1(4,2)-pyrimidina-4(3,4)-pyridinacyclotridecaphan-2-one]: the figures for the IC50 with pTau, on GSK3β and at GSK3α were 96 nM, 1.4 nM and 3.2 nM, respectively.
In the case of `C[C@@H]1Nc2nccc(n2)C(=O)Nc2cnc(F)cc2N2CCN(CC=CCC1O)CC2` (stereo partly shown), in series [1] (from C=CCC(O)[C@H](C)Nc1nccc(C(=O)Nc2cnc(F)cc2N2CCN(CC=C)CC2)n1, 18-membered ring, Zhan 1B, ClCH2CH2Cl, 4.78 mM, 1.5 h), the ring closure, isolated yield is 29% and 26%.
Turning to `O=C1Nc2cnc(F)cc2N2CCN(CCCCCCNc3nccc1n3)CC2` [Example 24, 2^6-Fluoro-3,6-diaza-5(4,2)-pyrimidina-1(1,4)-piperazina-2(4,3)-pyridinacyclododecaphan-4-one], the IC50 came out at 124 nM in the series on pTau, 2 nM at GSK3β and 3.6 nM on GSK3α.
For the molecule `O=C1Nc2cnc(F)cc2N2CCN(CC=CCC(O)CNc3nccc1n3)CC2` (stereo not shown), the ring closure, isolated yield in series [1] (from C=CCC(O)CNc1nccc(C(=O)Nc2cnc(F)cc2N2CCN(CC=C)CC2)n1, 18-membered ring, Zhan 1B (30 mol%), ClCH2CH2Cl, 5.33 mM, 4.0 h) was 50%.
`CC1(C)CC=CCN2CCN(CC2)c2cc(F)ncc2NC(=O)c2ccnc(n2)NC1` showed a ring closure, isolated yield in series [1] (from C=CCN1CCN(c2cc(F)ncc2NC(=O)c2ccnc(NCC(C)(C)CC=C)n2)CC1, 18-membered ring, Zhan 1B, 1.5 h, 2 steps) of 34%.
With `O=C1Nc2cnc(F)cc2N2CCOC(/C=C/CCCNc3nccc1n3)C2` (stereo not shown) [Example 14, (E)-2^6-Fluoro-3,6-diaza-1(4,2)-morpholina-5(4,2)-pyrimidina-2(4,3)-pyridinacycloundecaphan-10-en-4-one], the IC50 in the series with pTau was 627 nM; at GSK3β, 12.5 nM; on GSK3α it was 20.2 nM.
`O=C1Nc2cnccc2OCCC=CCCCNc2nccc1n2`: the ring closure, isolated yield in series [1] (from C=CCCCNc1nccc(C(=O)Nc2cnccc2OCCC=C)n1, 16-membered ring, Zhan 1B (30 mol%), ClCH2CH2Cl, 5.57 mM, 2.0 h) was 23%.
Take `CC1(C)C/C=C/CN2CCN(CC2)c2cc(F)ncc2NC(=O)c2ccnc(n2)NC1` [Example 32, (E)-2^6-Fluoro-8,8-dimethyl-3,6-diaza-5(4,2)-pyrimidina-1(1,4)-piperazina-2(4,3)-pyridinacyclododecaphan-10-en-4-one]: the IC50 in the series with pTau came out at 80 nM; at GSK3α it was 2 nM.
Regarding `O=C1Nc2cnccc2OCCCCCNc2nccc1n2` [Example 6, 5-Oxa-3,11-diaza-1(4,2)-pyrimidina-4(3,4)-pyridinacycloundecaphan-2-one], the IC50 came out at 910 nM with pTau, 28.6 nM on GSK3β and 21.2 nM at GSK3α.
On the same counts, the results for `O=C1Nc2cnc(F)cc2N2CCN(C/C=C/CC(O)CNc3nccc1n3)CC2` (stereo not shown) [Example 26, (E)-2^6-fluoro-8-hydroxy-3,6-diaza-5(4,2)-pyrimidina-1(1,4)-piperazina-2(4,3)-pyridinacyclododecaphan-10-en-4-one] are 164 nM, 3.3 nM and 4.3 nM.
In the case of `O=C1Nc2cnc(F)cc2N2CCN(CC=CCC(O)C3(CC3)Nc3nccc1n3)CC2` (mixture of isomers) [Example 34, (E)-6′-fluoro-8′-hydroxyspiro[cyclopropane-1,7′-3,6-diaza-5(4,2)-pyrimidina-1(1,4)-piperazina-2(4,3)-pyridinacyclododecaphanen]-10′-en-4′-one], the IC50 was determined as 9970 nM in the series with pTau, 1270 nM on GSK3β and 2000 nM at GSK3α. Also, the ring closure, isolated yield in series [1] (from C=CCC(O)C1(Nc2nccc(C(=O)Nc3cnc(F)cc3N3CCN(CC=C)CC3)n2)CC1, 18-membered ring, Zhan 1B, 1.5 h) came out at 54%.
Turning to `O=C1Nc2cnc(F)cc2N2CCN(C/C=C/CCCNc3nccc1n3)CC2` (single isomer, unassigned) [Example 23, (E)-2^6-fluoro-3,6-diaza-5(4,2)-pyrimidina-1(1,4)-piperazina-2(4,3)-pyridinacyclododecaphan-10-en-4-one], the IC50 in the series with pTau was 18 nM; on GSK3β, 0.5 nM; on GSK3α, 0.6 nM.
`O=C1Nc2cnc(F)cc2N2CCN(C/C=C/CC(F)CNc3nccc1n3)CC2` (stereo not shown) [Example 30, (E)-2^6,8-Difluoro-3,6-diaza-5(4,2)-pyrimidina-1(1,4)-piperazina-2(4,3)-pyridinacyclododecaphan-10-en-4-one]: the IC50 came out at 178 nM with pTau and 15.5 nM at GSK3α.
Take `CC1(O)C/C=C/CN2CCN(CC2)c2cc(F)ncc2NC(=O)c2ccnc(n2)NC1` (stereo not shown) [Example 39, (E)-2^6-Fluoro-8-hydroxy-8-methyl-3,6-diaza-5(4,2)-pyrimidina-1(1,4)-piperazina-2(4,3)-pyridinacyclododecaphan-10-en-4-one]: the IC50 in the series with pTau was determined as 372 nM; at GSK3β, 4.1 nM; on GSK3α, 8 nM.
For `O=C1Nc2cnc(F)cc2N2CCN(C/C=C\CC3(CC3)CNc3nccc1n3)CC2` [Example 44, (Z)-6′-fluorospiro[cyclopropane-1,8′-3,6-diaza-5(4,2)-pyrimidina-1(1,4)-piperazina-2(4,3)-pyridinacyclododecaphanen]-10′-en-4′-one], the IC50 in the series on pTau was found to be 1640 nM; on GSK3β, 12.5 nM; on GSK3α, 21.1 nM.
Consider `O=C1Nc2cnc(F)cc2N2CCOC(CCCCCNc3nccc1n3)C2` (stereo not shown) [Example 15, 2^6-Fluoro-3,6-diaza-1(4,2)-morphohna-5(4,2)-pyrimidina-2(4,3)-pyridinacycloundecaphan-4-one], for which the figures for the IC50 in the series on pTau, at GSK3β and on GSK3α were 1890 nM, 22.3 nM and 34 nM, respectively.
On to `O=C1Nc2cnc(F)cc2N2CCN(C/C=C\CCC(O)CNc3nccc1n3)CC2` (stereo not shown) [Example 29, (Z)-2^6-fluoro-8-hydroxy-3,6-diaza-5(4,2)-pyrimidina-1(1,4)-piperazina-2(4,3)-pyridinacyclotridecaphan-11-en-4-one], for which the IC50 is 2660 nM with pTau, 29 nM on GSK3β and 30.4 nM at GSK3α.
Regarding `O=C1Nc2cnccc2OCC/C=C/CCCNc2nccc1n2` [Example 17, (E)-5-Oxa-3,13-diaza-1(4,2)-pyrimidina-4(3,4)-pyridinacyclotridecaphan-8-en-2-one], the IC50 in the series on pTau amounted to 92 nM; on GSK3β, 1.3 nM; on GSK3α, 3.3 nM.
For the molecule `O=C1Nc2cnccc2OCCCCCCNc2nccc1n2` [Example 9, 5-Oxa-3,12-diaza-1(4,2)-pyrimidina-4(3,4)-pyridinacyclododecaphan-2-one], the IC50 with pTau came to 146 nM; on GSK3β, 5.2 nM; at GSK3α, 6.2 nM.
As to `C[C@@H]1Nc2nccc(n2)C(=O)Nc2cnc(F)cc2N2CCN(C/C=C/C[C@@H]1O)CC2` [Example 37, (7S,8S,E)-2^6-fluoro-8-hydroxy-7-methyl-3,6-diaza-5(4,2)-pyrimidina-1(1,4)-piperazina-2(4,3)-pyridinacyclododecaphan-10-en-4-one], the IC50 in the series on pTau worked out at 404 nM; on GSK3β, 7.3 nM; at GSK3α, 17 nM.
In the case of `C[C@@H]1Nc2nccc(n2)C(=O)Nc2cnc(F)cc2N2CCN(C/C=C/CC1O)CC2` (single isomer, unassigned) [Example 36], the IC50 was determined as 202 nM in the series with pTau, 10.8 nM at GSK3β and 18.5 nM at GSK3α.
For `O=C1Nc2cnccc2OCCCCCCCNc2nccc1n2` [Example 18, 5-Oxa-3,13-diaza-1(4,2)-pyrimidina-4(3,4)-pyridinacyclotridecaphan-2-one], the IC50 was 262 nM in the series on pTau, 3.1 nM at GSK3β and 6.7 nM at GSK3α.
Consider `O=C1Nc2cnc(F)cc2N2CCN(CC=CCC3(CC3)CNc3nccc1n3)CC2`, for which the ring closure, isolated yield in series [1] (from C=CCN1CCN(c2cc(F)ncc2NC(=O)c2ccnc(NCC3(CC=C)CC3)n2)CC1, 18-membered ring, Zhan 1B, ClCH2CH2Cl, 4.73 mM, 2.0 h) is 79%.
Regarding `O=C1Nc2cnc(F)cc2N2CCN(CC=CCCCNc3nccc1n3)CC2`, the ring closure, isolated yield in series [1] (from C=CCCCNc1nccc(C(=O)Nc2cnc(F)cc2N2CCN(CC=C)CC2)n1, 18-membered ring, Zhan 1B (20 mol%), ClCH2CH2Cl, 5.64 mM, 2.0 h) amounted to 65%.
`O=C1Nc2cnc(F)cc2N2CCOC(C=CCCCNc3nccc1n3)C2` (stereo not shown): the ring closure, isolated yield in series [1] (from C=CCCCNc1nccc(C(=O)Nc2cnc(F)cc2N2CCOC(C=C)C2)n1, 16-membered ring, Zhan 1B (40 mol%), ClCH2CH2Cl, 5.6 mM, 2.0 h) came to 46%.
